7 compounds from patent publication US12590126B2, “Compounds for selective disruption of protein-protein interactions” (SyntheX, Inc., priority 2017, dated 2026) can be followed below.

Each structure is given as a SMILES string. Read-outs that look alike come from different tables or passages of the source. Where a SMILES comes first, the peptide text is derived from it. [ ]: non-standard residue; d: D form. 2Nal = N[C@@H](Cc1ccc2ccccc2c1)C(=O)O; dNle = CCCC[C@@H](N)C(=O)O; dAbu = CC[C@@H](N)C(=O)O; Ahx = NCCCCCC(=O)O; βAla = NCCC(=O)O

The subject of data set [1] is SSP-25 cells. As to the kind of experiment: xCELLigence cell death assay in SSP-25 cells (cellular assay for RAD51 inhibition). The format is cell-based. As to conditions: concentration gradient added at 20 hour mark, only values with R^>0.85 shown. The protocol:
The efficacy of the peptides described herein was assessed by their ability to cause death in SSP-25 cells, which have amplification of RAD51 and are dependent on its activity.
First, 5,000 SSP25 cells were plated, and adherence and growth was measured for 20 hours using live measurements of current impedance through the plate using the xCELLigence™ instrument. At the 20 hour mark, a concentration gradient of each compound or a PBS control was added to the SSP-25 cells, which were cultured in […] RMPI media with 10% FBS. […] Only values with confidence and R^>0.85 are shown.

Data set [2] relates to fresh human RBCs. The format is cell-based. As to conditions: red cells of human, 1 h, 250. As for the experimental part: To assess the nonspecific lytic properties of each compounds disclosed herein, each mentioned compound was tested for hemolytic properties against fresh human RBCs. Briefly, donor blood was drawn into a K2EDTA anticoagulant tube from multiple O+ donors. The blood was washed 3 times in PBS. RBCs were diluted to 2% in PBS and compounds were added at various concentrations. Samples were incubated at 37 C for 1 hr, then centrifuged at 2200 rpm for 5 min. Supernatants were measured for absorbance at 450 nm or 405 nm. The percentage hemolysis was calculated as lysis relative to 1% Triton X-100 incubation.

Data set [3] in a line: in vitro. As to conditions: human, microsomes.
Experimental: (§1) For HLM and MLM stability studies, each compound was incubated with the liver microsome mixture for up to an hour at 37 C in the presence of NADPH.
(§2) After the incubations, the reactions were stopped and the compounds were analyzed according to the method developed for each.
Data set [4] is described as follows: Mouse pharmacokinetics, IV and IP dosing. It counts as in vivo, mice. As to conditions: for AUC(0-inf) / AUC(0-t) / C0 / MRT inf / clearance / Vd / half-life: in vivo. The protocol:
The pharmocokinetic parameters in mice by both intravenous (IV) and intraperitoneal (IP) dosing, as well as the serum and microsome stability for each of compound 22, 23, 24, and 25 was determined. Bioanalytical methods were developed for each compound using an LC-MS/MS method with LLOQ>100 ng/ml.
For in-vivo PK work, at least 3 mice were used per timepoint. For each compound, the animals were injected either IV or IP with the compound. IV injections used 1 mg/kg, and IP injections were at 15 mg/kg. Blood was collected at the indicated timepoints and analyzed according to the bioanalytical method developed.

Data set [5] is described as follows: in vitro. As to conditions: mouse, serum.
Experimental: Serum stability data was obtained using the appropriate animal serum, each incubated with the compound for up to two hours at 37 C.
Data set [6] in a line: in vitro. As to conditions: mouse, microsomes.
Experimental: as §1, §2
The mark [7] stands for this setting: iv, 1 mg/kg, 1 mg/kg IV, read-out: Vss.
[8] abbreviates: iv, 1 mg/kg, 1 mg/kg IV, read-out: Vz.
[9] abbreviates: iv, 1 mg/kg, 1 mg/kg IV, read-out: t½ (converted).
[10] abbreviates: iv, 1 mg/kg, IV (1 mg/kg), read-out: Half-life Mouse IV.

With `CCCC[C@@H](NC(=O)[C@@H](CC(C)C)NC(C)=O)C(=O)N[C@H](CCCNC(=N)N)C(=O)N[C@H](CC)C(=O)N[C@@H](C(=O)N[C@H](CCCNC(=N)N)C(=O)N[C@H](CC(C)C)C(=O)N[C@H](CCCNC(=N)N)C(=O)N[C@@H](C(=O)NCC(=O)N[C@H](CC(C)C)C(=O)N[C@H](CCCNC(=N)N)C(=O)N[C@H](CCCCN)C(=O)N[C@H](CCCNC(=N)N)C(=O)N[C@H](CCCNC(=N)N)C(=O)N[C@H](CCCNC(=N)N)C(=O)N[C@H](CCCNC(=N)N)C(=O)N[C@H](CCCNC(=N)N)C(=O)NCC(=O)N[C@@H](Cc1ccc2ccccc2c1)C(N)=O)C(C)C)C(C)C` [Compound 15, Ac-l{d-norLeucine}r(abu)vrlrvGlrkrrrrrGΦ-NH2] (Ac-[dL][dNle][dR][dAbu][dV][dR][dL][dR][dV]G[dL][dR][dK][dR][dR][dR][dR][dR]G[2Nal]-NH2), in data set [1], the half-maximal inhibitory concentration (IC50) (commonly the concentration that gives 50% inhibition) stood at 7.2 µM. In addition, the “% Hemolysis (250 uM)” value in data set [2] was determined as 49%.
For `CCCC[C@@H](NC(=O)[C@@H](CC(C)C)NC(C)=O)C(=O)N[C@H](CCCNC(=N)N)C(=O)N[C@H](CO)C(=O)N[C@@H](C(=O)N[C@H](CCCNC(=N)N)C(=O)N[C@H](CC(C)C)C(=O)N[C@H](CCCNC(=N)N)C(=O)N[C@@H](C(=O)NCCC(=O)N[C@H](CC(C)C)C(=O)N[C@H](CCCNC(=N)N)C(=O)N[C@H](CCCCN)C(=O)N[C@H](CCCNC(=N)N)C(=O)N[C@H](CCCNC(=N)N)C(=O)N[C@H](CCCNC(=N)N)C(=O)N[C@H](CCCNC(=N)N)C(=O)N[C@H](CCCNC(=N)N)C(=O)NCC(=O)N[C@@H](Cc1ccc2ccccc2c1)C(N)=O)C(C)C)C(C)C` [Compound 17, Ac-l{d-norLeucine}rsvdrv[beta-ALA]lrkrrrrrGΦ-NH2] (Ac-[dL][dNle][dR][dS][dV][dR][dL][dR][dV][βAla][dL][dR][dK][dR][dR][dR][dR][dR]G[2Nal]-NH2) the same measures were 20 µM and 32%.
For `CCCC[C@@H](NC(=O)[C@@H](CCCNC(=N)N)NC(=O)[C@@H](CC(C)C)NC(=O)[C@@H](CCCNC(=N)N)NC(=O)[C@@H](CCCNC(=N)N)NC(=O)[C@@H](CC)NC(=O)[C@@H](CCCNC(=N)N)NC(=O)[C@@H](CCCC)NC(=O)[C@@H](CC(C)C)NC(C)=O)C(=O)NCCC(=O)N[C@H](CC(C)C)C(=O)N[C@H](CCCNC(=N)N)C(=O)N[C@H](CCCCN)C(=O)N[C@H](CCCNC(=N)N)C(=O)N[C@H](CCCNC(=N)N)C(=O)N[C@H](CCCNC(=N)N)C(=O)N[C@H](CCCNC(=N)N)C(=O)N[C@H](CCCNC(=N)N)C(=O)NCC(=O)N[C@@H](Cc1ccc2ccccc2c1)C(N)=O` [Compound 18, Ac-l{d-norLeucine}r(abu)rrlr[d-norLeucine][beta-ALA]lrkrrrrrGΦ-NH2] (Ac-[dL][dNle][dR][dAbu][dR][dR][dL][dR][dNle][βAla][dL][dR][dK][dR][dR][dR][dR][dR]G[2Nal]-NH2), in that order: 17.8 µM and 17%.
For the compound `CCCC[C@@H](NC(=O)[C@@H](CC(C)C)NC(=O)CN(C)S(=O)(=O)c1cccc2c(N(C)C)cccc12)C(=O)N[C@H](CCCNC(=N)N)C(=O)N[C@H](CO)C(=O)N[C@@H](C(=O)N[C@H](CCCNC(=N)N)C(=O)N[C@H](CC(C)C)C(=O)N[C@H](CCCNC(=N)N)C(=O)N[C@@H](C(=O)NCC(=O)N[C@H](CC(C)C)C(=O)N[C@H](CCCNC(=N)N)C(=O)N[C@H](CCCNC(=N)N)C(=O)N[C@H](CCCNC(=N)N)C(=O)N[C@H](CCCNC(=N)N)C(=O)N[C@H](CCCNC(=N)N)C(=O)N[C@H](CCCNC(=N)N)C(=O)N(C)CC(=O)N(C)CC(=O)OC)C(C)C)C(C)C` [Compound 20, DANSYL-Sarcosine-l{d-norLeucine}rsvrlrvGlrrrrrr-sarcosine-sarcosine-OMe], the “% Hemolysis (250 uM)” value in data set [2] turned out to be 84%.
Compound `CCCC[C@@H](NC(=O)[C@@H](CC(C)C)NC(C)=O)C(=O)N[C@H](CCCNC(=N)N)C(=O)N[C@H](CO)C(=O)N[C@@H](C(=O)N[C@H](CCCNC(=N)N)C(=O)N[C@H](CC(C)C)C(=O)N[C@H](CCCNC(=N)N)C(=O)N[C@@H](C(=O)NCC(=O)N[C@H](CC(C)C)C(=O)N[C@H](CCCNC(=N)N)C(=O)N[C@H](CCCNC(=N)N)C(=O)N[C@H](CCCNC(=N)N)C(=O)N[C@H](CCCNC(=N)N)C(=O)N[C@H](CCCNC(=N)N)C(=O)N[C@H](CCCNC(=N)N)C(=O)N(C)CC(=O)N(C)CC(=O)OC)C(C)C)C(C)C` [Compound 21, Ac-l{d-norLeucine}rsvrlrvGlrrrrrr-sarcosine-sarcosine-OMe] showed a 50% inhibitory concentration (IC50) in data set [1] of 25 µM. Moreover, the “% Hemolysis (250 uM)” value in data set [2] worked out at 31%.
As for `CCCC[C@@H](NC(=O)[C@@H](CC(C)C)NC(C)=O)C(=O)N[C@H](CCCNC(=N)N)C(=O)N[C@H](C)C(=O)N[C@@H](C(=O)N[C@H](CCCNC(=N)N)C(=O)N[C@H](CC(C)C)C(=O)N[C@H](CCCNC(=N)N)C(=O)N[C@@H](C(=O)NCCC(=O)N[C@H](CC(C)C)C(=O)N[C@H](CCCNC(=N)N)C(=O)NCCCCCC(=O)N[C@H](CCCNC(=N)N)C(=O)NCCCCCC(=O)N[C@H](CCCNC(=N)N)C(=O)NCCCCCC(=O)N[C@H](CCCNC(=N)N)C(=O)NCCCCCC(=O)N[C@H](CCCNC(=N)N)C(=O)NCCCCCC(=O)N[C@H](CCCNC(=N)N)C(N)=O)C(C)C)C(C)C` [Compound 23, Ac-l{d-norLeucine}ravrlrv[beta-ALA]lr(Ahx)r(Ahx)r(Ahx)r(Ahx)r(Ahx)r-NH2] (Ac-[dL][dNle][dR][dA][dV][dR][dL][dR][dV][βAla][dL][dR][Ahx][dR][Ahx][dR][Ahx][dR][Ahx][dR][Ahx][dR]-NH2), the half-life was 108 min in data set [3]; 33.9 min in data set [4] (setting [9]); 33.8 min in data set [4] (setting [10]); over 500 min in data set [5]; 41.8 min in data set [6]. Also, in data set [4] (1 mg/kg IV), the “AUC Extr” value was 28.5%. Moreover, the total exposure AUC(0-inf) (commonly the area under the concentration-time curve extrapolated to infinity) in data set [4] (1 mg/kg IV) turned out to be 490 ng·h/mL; in data set [4] (15 mg/kg IP) it was 341 ng·h/mL. Also, the exposure AUC(0-t) (as a rule, exposure summed from dosing to a finite time, without extrapolation to infinity) in data set [4] (1 mg/kg IV) was 347 ng·h/mL. Further, the C0 in data set [4] (1 mg/kg IV) stood at 1480 ng/mL. Also, the mean residence time (MRT inf) (in general, the average time that molecules of a dose stay in the body) in data set [4] (1 mg/kg IV) came to 0.738 h; in data set [4] (15 mg/kg IP), 6.56 h. This compound also had a clearance in data set [4] (1 mg/kg IV) of 36.1 mL/min/kg. Moreover, the Vd in data set [4] (setting [7]) was found to be 1.56 L/kg; in data set [4] (setting [8]) it was 1.71 L/kg. Inhibition in data set [1] was half-maximal at 20.6 µM (IC50). The “% Hemolysis (250 uM)” value in data set [2] is 3%.
With `CCCC[C@@H](NC(=O)[C@@H](CC(C)C)NC(C)=O)C(=O)N[C@H](CCCNC(=N)N)C(=O)N[C@H](C)C(=O)N[C@@H](C(=O)N[C@H](CCCNC(=N)N)C(=O)N[C@H](CC(C)C)C(=O)N[C@H](CCCNC(=N)N)C(=O)N[C@@H](C(=O)NCCC(=O)N[C@H](CC(C)C)C(=O)N[C@H](CCCNC(=N)N)C(=O)NCCCCCC(=O)N[C@H](CCCNC(=N)N)C(=O)NCCCCCC(=O)N[C@H](CCCNC(=N)N)C(=O)NCCCCCC(=O)N[C@H](CCCNC(=N)N)C(=O)NCCCCCC(=O)N[C@H](CCCNC(=N)N)C(=O)NCCCCCC(=O)N[C@H](CCCNC(=N)N)C(=O)NCCCCCC(=O)N[C@H](Cc1ccc(O)cc1)C(N)=O)C(C)C)C(C)C` [Compound 24, Ac-l{d-norLeucine}ravrlrv[beta-ALA]lr(Ahx)r(Ahx)r(Ahx)r(Ahx)r(Ahx)r(Ahx)y-NH2] (Ac-[dL][dNle][dR][dA][dV][dR][dL][dR][dV][βAla][dL][dR][Ahx][dR][Ahx][dR][Ahx][dR][Ahx][dR][Ahx][dR][Ahx][dY]-NH2), the half-life in data set [3] was 56.8 min; in data set [4] (ip, 15 mg/kg, 15 mg/kg IP, read-out: t½ (converted)) it was 113 min; in data set [4] (ip, 15 mg/kg, IP (15 mg/kg), read-out: Half-life Mouse IP) it was 113 min; in data set [4] (setting [9]), 32.9 min; in data set [4] (setting [10]), 33 min; in data set [5] it was 277 min. Besides, the half-life in data set [6] came to 116 min. The “AUC Extr” value in data set [4] (1 mg/kg IV) was determined as 28.8%. In data set [4] (15 mg/kg IP), the Vss turned out to be 2.95 L/kg. Besides, the AUC(0-inf) in data set [4] (1 mg/kg IV) turned out to be 528 ng·h/mL; in data set [4] (15 mg/kg IP), 1010 ng·h/mL. Further, the area under the curve AUC(0-t) in data set [4] (1 mg/kg IV) came to 375 ng·h/mL. The same compound yielded a C0 in data set [4] (1 mg/kg IV) of 683 ng/mL. In addition, the MRT inf in data set [4] (1 mg/kg IV) came out at 0.779 h; in data set [4] (15 mg/kg IP), 17.9 h. Also, the clearance in data set [4] (1 mg/kg IV) is 31.7 mL/min/kg. For the same compound, the Vd in data set [4] (setting [7]) was 1.48 L/kg; in data set [4] (setting [8]), 1.51 L/kg. In data set [1], this compound yielded an IC50 of 6.2 µM. The “% Hemolysis (250 uM)” value in data set [2] was found to be 3%.
